Measurements: patent publication US20140031427A1, “COMBINATIONS OF ADAPALENE AND BENZOYL PEROXIDE FOR TREATING ACNE LESIONS” (GALDERMA RESEARCH & DEVELOPMENT, priority 2006, published 2014)
“And” between values parts separate entries of the source, which are not always exact repeats. Equal values may be shown once.

Assays:
acne lesions = assay: Clinical study of topical gel combining adapalene + BPO vs monads and vehicle, 517 patients, 12 weeks; assay type: in vivo, human; details: for reduction in lesions: all lesions, week 12, rounded values in text; for Degree of success / Progress of the lesions (as median absolute numbers): Number of inflammatory lesions / Progress of the lesions (as median absolute numbers): Number of non-inflammatory lesions / Progress of the lesions (as median absolute numbers): Total number of lesions / Progress of the lesions (median percentages): Number of inflammatory lesions / Progress of the lesions (median percentages): Number of non-inflammatory lesions / Progress of the lesions (median percentages): Total number of lesions: week 12, ITT, adapalene 0.1%, BPO 2.5%; for Degree of success: % patients clear or almost clear, gels once a day
Protocol: A clinical study for confirmation of efficacy was performed for a topical gel combining adapalene+benzoyl peroxide (BPO). This gel has the following formulation (expressed as % weight/total weight): The clinical study was a multi-center, randomized, double-blind study in parallel groups, to evaluate the tolerance and the efficacy of the above formulation, in comparison with its own individual active substances placed at the same doses in gels of the same formula as that of the fixed combination (individual formulae referred to as “monads”) and in comparison with the gel vehicle (placebo formula): adapalene gel (0.1%), BPO gel (2.5%) and vehicle gel. All the treatments were applied once a day for 12 weeks, to 517 patients suffering from acne. The main efficacy criteria were: the degree of success, defined as the percentage of patients considered as being “clear”, i.e., the patient has no more acne lesions (neither comedones nor inflammatory lesions), reflecting an improvement in the patient's clinical condition, or “almost clear” on the evaluation scale; the reduction of the percentage of inflammatory and non-inflammatory lesions after 12 weeks of treatment.

TPA-induced ear edema = assay: Anti-inflammatory evaluation in TPA-induced ear oedema model; assay type: in vivo, Balb/c mice; details: T+6 hours
Protocol: The study was carried out with 45 (5 par groups) female 9 weeks aged Balb/c ByJIc mice.
The Edema was induced by a single application of 20 μl of TPA dissolved in acetone at 0.01%.
The treatment was administrated by single topical application of tested compounds dissolved in TPA at 0.01% (groups 3, 4, 5, 6 and 7) and dissolved in TPA 0.01%+BPO (groups 8, 9 and 10).
The treatments activity was measured by inflammation evaluation with ear thickness at T+6 hours.

acne vulgaris lesions = assay: Pooled analysis of three adapalene-BPO clinical studies (3855 patients): efficacy and synergy; assay type: in vivo, human; details: adapalene 0.1%, BPO 2.5%; for net effect (active minus vehicle), total lesions: week 1; for success rate: week 12, % patients with IGA clear or almost clear
Protocol: (§1) Three multicenter, double-blind, randomized and controlled studies on the efficacy and safety of adapalene-BPO were conducted in 157 centers in the U.S, Puerto Rico, Canada, Germany, Poland and Hungary.^19-21 Patients were randomized to receive adapalene 0.1%-BPO 2.5% (Epiduo®, Galderma Laboratories), adapalene 0.1%, BPO 2.5% or vehicle once daily in the evening for 12 weeks. Adapalene and BPO used in the studies were formulated in the same gel vehicle as adapalene-BPO, instead of as the respective commercial products (Differin® and Benzac®, Galderma Laboratories). Efficacy and safety assessments were performed at each study visit, occurred at baseline, weeks 1, 2, 4, 8 and 12.
Eligible patients were 12 years or older with 20 to 50 inflammatory lesions (IL), 30 to 100 non-inflammatory lesions (NIL), no cysts and no more than 1 nodule on the face. […] Lesion counts were performed on the face only excluding the nose. Specified washout periods were required for patients taking certain topical and systemic treatments. Patients were excluded if they received systemic acne treatment or had dermatological conditions requiring interfering treatments. Women were excluded if they were pregnant, nursing, or planning a pregnancy. Men were excluded if they had facial hair that would interfere with assessments.
IGA was evaluated on a scale from 0 (clear: residual hyperpigmentation and erythema may be present) to 4 (severe: entire face is involved, covered with comedones, numerous papules and pustules, and few nodules and cysts).
(§2) Data from the three studies were pooled and analyzed. Efficacy was evaluated in the intent-to-treat (ITT) population, which included all patients who were randomized and dispensed study medicine. Safety was assessed in the safety population, which included all patients who were randomized and treated at least once.
Efficacy was evaluated by the Cochran-Mantel-Haenzsel (CMH) test, using general association for success rate and row mean differences by relative to identified distribution (RIDIT) transformed scores for percent lesion change. All tests were 2-sided.
Synergy was defined as the efficacy of combination (adapalene-BPO) greater than the sum of efficacy of individual components (adapalene alone and BPO alone). We took into account the vehicle effect by deducting it from the effect of treatments:^25
Net effect of active agent=effect of active agent−effect of vehicle Synergy=Net effect of adapalene-BPO−(Net effect of adapalene+Net effect of BPO)>0
The degree of synergy was evaluated based on the contribution of synergy to efficacy (net effect) of adapalene-BPO:
Degree of synergy(%)=(synergy/Net effect of adapalene-BPO)×100

[1] = Pooled analysis of three adapalene-BPO clinical studies: safety (adverse events, local facial tolerability); assay type: in vivo, human; details: 12 weeks, safety population; adapalene 0.1%, BPO 2.5%
Protocol: as §1
Safety of the treatments was evaluated through reporting of adverse events (AE) and assessments of local facial tolerability. At each study visit, the investigators rated signs of erythema, scaling, dryness and stinging/burning on a scale from 0 (none) to 3 (severe).
as §2

[2] = even in the presence of light; cited from earlier work
[3] = Adapalene at 0.1% alone in TPA 0.01%
[4] = BPO at 2.5% (alone or with adapalene at 0.1%) in TPA 0.01%
[5] = BPO at 5% (alone or with adapalene at 0.1%) in TPA 0.01%
[6] = BPO at 10% (alone or with adapalene at 0.1%) in TPA 0.01%

| Compound | reduction in lesions (acne lesions) | Degree of success (acne lesions) | Progress of the lesions (as median absolute numbers): Number of inflammatory lesions (acne lesions) | Progress of the lesions (as median absolute numbers): Number of non-inflammatory lesions (acne lesions) | Progress of the lesions (as median absolute numbers): Total number of lesions (acne lesions) | Progress of the lesions (median percentages): Number of inflammatory lesions (acne lesions) | Progress of the lesions (median percentages): Number of non-inflammatory lesions (acne lesions) | Progress of the lesions (median percentages): Total number of lesions (acne lesions) | net effect (active minus vehicle), total lesions (acne vulgaris lesions) | success rate (acne vulgaris lesions) | percentage of patients who experienced treatment-related AEs [1] | other results |
| --- | --- | --- | --- | --- | --- | --- | --- | --- | --- | --- | --- | --- |
| COc1ccc(-c2ccc3cc(C(=O)O)ccc3c2)cc1C12CC3CC(CC(C3)C1)C2 [Adapalene, 6-[3-(1-Adamantyl)-4-methoxyphenyl]-2-naphthoic acid] | 35% | 15.5% | −13.0 | −17.0 | −29.0 | −45.7% | −33.3% | −35.4% | 1.4% | 20.0% | 15.3% | Degree of success (acne lesions; listed as adapalene): 16%; Ear edema Mean (TPA-induced ear edema; [3]): 23.40; Inhibition vs TPA (%) (TPA-induced ear edema; [3]): 13% and 12.7%; stability when combined with BPO [2]: remains stable |
| O=C(OOC(=O)c1ccccc1)c1ccccc1 [BPO, benzoyl peroxide] | 36% | 15% and 15.4% | −13.0 | −16.0 | −27 | −43.6% | −36.4% | −35.6% | 2.4% | 23.1% | 8.5% | Ear edema Mean (TPA-induced ear edema; [4]): 22.40; Inhibition vs TPA (%) (TPA-induced ear edema; [4]): 16% and 16.4%; Ear edema Mean (TPA-induced ear edema; [5]): 20.40; Inhibition vs TPA (%) (TPA-induced ear edema; [5]): 24% and 23.9%; Ear edema Mean (TPA-induced ear edema; [6]): 16.20; Inhibition vs TPA (%) (TPA-induced ear edema; [6]): 40% and 39.6% |
